Data from patent US7199121B2, “Protein tyrosine phosphatase inhibitor” (Institute of Molecular and Cell Biology, priority 2000, dated 2007).

What was measured:
Mycobacterium smegmatis = assay: Antimicrobial activity, Mycobacterium smegmatis; assay type: cell-based; conditions: 50 μM or 100 μM
Staphylococcus aureus = assay: Antimicrobial activity, Staphylococcus aureus; assay type: cell-based; conditions: 50 μM or 100 μM
Escherichia coli = assay: Antimicrobial activity, Escherichia coli; assay type: cell-based; conditions: 50 μM or 100 μM
Enterococcus faecalis = assay: Antimicrobial activity, Enterococcus faecalis; assay type: cell-based; conditions: 50 μM or 100 μM
Proteus vulgaris = assay: Antimicrobial activity, Proteus vulgaris; assay type: cell-based; conditions: 50 μM or 100 μM
Pseudomonas aeruginosa = assay: Antimicrobial activity, Pseudomonas aeruginosa; assay type: cell-based; conditions: 50 μM or 100 μM
Candida albicans = assay: Antimicrobial activity, Candida albicans; assay type: cell-based; conditions: 50 μM or 100 μM
Curvualaria sp. = assay: Antimicrobial activity, Curvualaria sp.; assay type: cell-based; conditions: 50 μM or 100 μM
PTP = assay: Bioassay for PTP inhibitory activity; assay type: biochemical
Description: HTS for inhibitory activity towards PTPα was performed in 96 well plates (Nunclon). Dephosphorylation of the substrate (pNPP) was measured in 180 μL reactions/well in assay buffer containing 50 mM sodium acetate (pH 5.5), 0.5 mg/mL BSA and 0.5 mM dithiothreitol. The purified enzyme PTPα (0.3 μg/well) and extracts (5 μL in 50% methanol) were preincubated for 5–10 min at room temperature in a volume of 170 μl. Reactions were initiated by adding 10 μL of substrate in assay buffer to a final concentration of 2 mM. For each plate, 6 reference control wells containing PTPα were preincubated with 5 μL 50% methanol at the same time as the test samples. As a positive control for PTPα inhibition, 1 μM Na3VO4, a potent inhibitor of PTPs, was added to some wells. Blank wells contained 5 μL 50% methanol, 2 mM pNPP in assay buffer and no enzyme. For each set of experiments (from 2–5 plates), reference controls in a separate plate were read at different time points to check the linearity of the reaction. Reactions were stopped with 25 μL KH2PO4 after 45–60 mins incubation at room temperature. The plates were read immediately in a multilabel counter (Wallac 1420 Victor). The OD405 of the reference wells ranged between 0.7–1.2, which represents <10% conversion of the substrate and falls within the linear part of the reaction. Percentage inhibition was determined using the formula: % Inhibition=[{(OD ref−OD blank)−(OD test−OD blank)}/(OD ref−OD blank)]×100 Phosphatase Assay: […]

λPP = target: T1, λPP (Escherichia phage lambda, UniProt P03772); assay: Phosphatase assay (pNPP dephosphorylation), λPP
T1 sequence (P03772 1-221): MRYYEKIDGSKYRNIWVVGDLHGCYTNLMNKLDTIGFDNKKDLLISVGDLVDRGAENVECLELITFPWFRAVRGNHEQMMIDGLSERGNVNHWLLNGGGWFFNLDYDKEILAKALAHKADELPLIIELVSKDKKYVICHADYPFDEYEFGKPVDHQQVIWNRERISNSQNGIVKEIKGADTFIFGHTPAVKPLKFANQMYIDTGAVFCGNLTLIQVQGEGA
Description: (§1) All other PTPs described in the text were purchased from New England Biolabs. Dephosphorylation of pNPP was measured in 450 μL reactions containing 50 mM sodium acetate (pH 5.5, or pH 7 for CIP), 0.5 mg/mL BSA, 0.5 μM dithiothreitol, and 2 mM pNPP. Reactions with IPP also contained 2 mM Mn^2+. […] All reactions were carried out at 30° C. and terminated during the linear portion of the reaction.
(§2) [nM] refers to the concentration of phosphatase assayed. The numbers indicate percentage activities relative to respective control reactions without addition of 3, 4, or Na3VO4. The numbers represent the average of the activities measured with three separate enzyme preparations, each of which was assayed in duplicate±S.D.

CD45 = target: T2, CD45 (Homo sapiens, UniProt P08575); assay: Phosphatase assay (pNPP dephosphorylation), CD45
T2 sequence (P08575 599-1306 limits assumed): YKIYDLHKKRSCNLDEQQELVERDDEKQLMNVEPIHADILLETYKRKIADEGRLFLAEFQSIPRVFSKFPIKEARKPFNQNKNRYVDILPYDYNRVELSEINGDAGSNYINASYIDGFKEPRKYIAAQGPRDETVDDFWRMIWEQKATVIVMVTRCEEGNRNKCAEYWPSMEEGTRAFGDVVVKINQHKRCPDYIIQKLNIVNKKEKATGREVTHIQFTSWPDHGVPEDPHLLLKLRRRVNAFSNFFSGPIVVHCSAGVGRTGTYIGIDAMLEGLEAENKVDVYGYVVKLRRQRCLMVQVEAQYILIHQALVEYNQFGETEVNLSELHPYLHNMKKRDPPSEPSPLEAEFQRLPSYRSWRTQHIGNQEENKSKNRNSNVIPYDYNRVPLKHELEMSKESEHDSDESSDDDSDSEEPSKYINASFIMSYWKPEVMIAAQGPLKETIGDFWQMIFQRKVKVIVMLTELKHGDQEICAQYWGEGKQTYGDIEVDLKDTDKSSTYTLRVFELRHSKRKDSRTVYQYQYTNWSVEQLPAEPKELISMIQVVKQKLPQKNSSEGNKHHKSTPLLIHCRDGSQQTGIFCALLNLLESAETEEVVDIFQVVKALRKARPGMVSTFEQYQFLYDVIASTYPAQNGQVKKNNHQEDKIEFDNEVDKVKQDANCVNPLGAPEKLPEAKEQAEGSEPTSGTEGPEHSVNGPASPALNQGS
Description: as §1, §2

TCPTP = target: T3, TCPTP (Homo sapiens, UniProt P17706); assay: Phosphatase assay (pNPP dephosphorylation), TCPTP
T3 sequence (P17706 1-317 limits assumed): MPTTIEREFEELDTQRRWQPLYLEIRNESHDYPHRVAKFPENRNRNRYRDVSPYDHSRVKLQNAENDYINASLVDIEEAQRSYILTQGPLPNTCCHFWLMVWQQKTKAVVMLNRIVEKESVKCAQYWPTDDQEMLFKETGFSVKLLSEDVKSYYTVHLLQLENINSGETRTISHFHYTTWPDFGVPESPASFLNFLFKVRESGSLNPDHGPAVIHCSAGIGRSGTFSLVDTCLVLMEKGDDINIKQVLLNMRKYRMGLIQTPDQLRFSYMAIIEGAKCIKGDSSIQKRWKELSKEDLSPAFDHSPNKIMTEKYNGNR
Description: (§3) Dephosphorylation of pNPP was measured in 450 μL reactions containing 50 mM sodium acetate (pH 5.5, or pH 7 for CIP), 0.5 mg/mL BSA, 0.5 μM dithiothreitol, and 2 mM pNPP. Reactions with IPP also contained 2 mM Mn^2+. […] All reactions were carried out at 30° C. and terminated during the linear portion of the reaction.
as §2

LAR-D1 = target: T4, LAR-D1 (Homo sapiens, UniProt P10586); assay: Phosphatase assay (pNPP dephosphorylation), LAR-D1
T4 sequence (P10586 1352-1607 limits assumed): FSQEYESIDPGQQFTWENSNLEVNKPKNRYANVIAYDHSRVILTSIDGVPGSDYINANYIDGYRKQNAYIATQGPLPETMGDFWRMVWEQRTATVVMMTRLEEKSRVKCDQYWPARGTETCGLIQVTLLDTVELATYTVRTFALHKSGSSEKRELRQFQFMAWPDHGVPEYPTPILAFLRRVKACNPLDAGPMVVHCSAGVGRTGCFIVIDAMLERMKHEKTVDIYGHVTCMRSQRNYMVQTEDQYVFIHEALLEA
Description: as §3, §2

εD1D2 = εD1D2 (Homo sapiens, UniProt P23469); assay: Phosphatase assay (pNPP dephosphorylation), PTPε D1D2
Description: as §1, §2

αD1D2 = αD1D2 (Homo sapiens, UniProt P18433); assay: Phosphatase assay (pNPP dephosphorylation), PTPα D1D2
Description: as §1, §2

CIP = assay: Phosphatase assay (pNPP dephosphorylation, pH 7), CIP
Description: as §1, §2

[1] = 1 μM compound, phosphatase 5.0 nM, pNPP, average of three enzyme preparations ± S.D.
[2] = 1 μM compound, phosphatase 1.0 nM, pNPP, average of three enzyme preparations ± S.D.

αD1D2, sequence (P18433 175-802): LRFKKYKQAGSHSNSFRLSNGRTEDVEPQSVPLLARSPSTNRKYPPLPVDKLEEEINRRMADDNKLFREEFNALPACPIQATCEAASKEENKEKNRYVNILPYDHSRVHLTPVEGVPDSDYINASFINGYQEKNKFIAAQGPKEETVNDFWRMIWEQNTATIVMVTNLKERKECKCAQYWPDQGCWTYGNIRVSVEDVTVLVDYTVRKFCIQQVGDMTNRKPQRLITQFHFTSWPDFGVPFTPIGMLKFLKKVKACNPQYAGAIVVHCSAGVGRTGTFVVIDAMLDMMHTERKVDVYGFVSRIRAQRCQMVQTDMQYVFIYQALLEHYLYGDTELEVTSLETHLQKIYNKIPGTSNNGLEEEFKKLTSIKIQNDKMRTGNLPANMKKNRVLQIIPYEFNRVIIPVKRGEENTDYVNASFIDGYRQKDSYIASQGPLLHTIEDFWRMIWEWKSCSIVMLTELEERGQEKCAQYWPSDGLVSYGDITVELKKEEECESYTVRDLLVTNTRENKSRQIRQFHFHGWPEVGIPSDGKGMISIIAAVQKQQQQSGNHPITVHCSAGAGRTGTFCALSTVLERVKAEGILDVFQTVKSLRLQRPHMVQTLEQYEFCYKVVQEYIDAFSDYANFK
εD1D2, sequence (P23469 70-700 limits assumed): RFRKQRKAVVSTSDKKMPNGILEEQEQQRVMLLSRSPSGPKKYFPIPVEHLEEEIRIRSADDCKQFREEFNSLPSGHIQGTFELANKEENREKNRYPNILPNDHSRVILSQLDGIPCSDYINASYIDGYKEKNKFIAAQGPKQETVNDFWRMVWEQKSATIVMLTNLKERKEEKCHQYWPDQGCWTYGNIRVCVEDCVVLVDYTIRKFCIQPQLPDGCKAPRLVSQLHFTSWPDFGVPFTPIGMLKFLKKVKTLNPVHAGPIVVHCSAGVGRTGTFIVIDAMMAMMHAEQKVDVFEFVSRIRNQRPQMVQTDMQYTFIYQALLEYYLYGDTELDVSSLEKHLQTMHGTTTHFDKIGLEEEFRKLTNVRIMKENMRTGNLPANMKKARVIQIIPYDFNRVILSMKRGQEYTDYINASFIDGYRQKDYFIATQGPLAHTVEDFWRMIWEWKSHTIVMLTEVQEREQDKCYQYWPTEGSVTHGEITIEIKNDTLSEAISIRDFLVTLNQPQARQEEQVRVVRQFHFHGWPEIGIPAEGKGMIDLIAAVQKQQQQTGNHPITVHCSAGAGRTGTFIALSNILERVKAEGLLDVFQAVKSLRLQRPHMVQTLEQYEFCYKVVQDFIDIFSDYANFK

For `Cn1nc2c(nc1=O)c(=O)n(C)c(=O)n2C` [Compound 3, 2,8-dihydro-2,6,8-trimethyl-pyrimido[5,4-e]-1,2,4-triazine-3,5,7(6H)-trione], which “antimicrobial activity against Mycobacterium smegmatis” value (Mycobacterium smegmatis) is on record?
Its value is “no antimicrobial activity”.

And the “antimicrobial activity against Staphylococcus aureus” value (Staphylococcus aureus)?
Its value is “no antimicrobial activity”.

And the “antimicrobial activity against Escherichia coli” value (Escherichia coli)?
Its value is “no antimicrobial activity”.

And the “antimicrobial activity against Enterococcus faecalis” value (Enterococcus faecalis)?
Its value is “no antimicrobial activity”.

What about the “antimicrobial activity against Proteus vulgaris” value (Proteus vulgaris) of the same compound?
The value was “no antimicrobial activity”.

And the “antimicrobial activity against Pseudomonas aeruginosa” value (Pseudomonas aeruginosa)?
The value was “no antimicrobial activity”.

And the “antimicrobial activity against Candida albicans” value (Candida albicans)?
The value was “no antimicrobial activity”.

What about the “antimicrobial activity against Curvualaria sp.” value (Curvualaria sp.) of the same compound?
Its value is “no antimicrobial activity”.

What about the “effect on in vitro activity of the PTPs tested” value (PTP; 1 μM, receptor and non-receptor PTPs) of the same compound?
The value was “inhibited all the PTPs tested”.

And the “PTP inhibitory activity in bioassay” value (PTP; isolated material, 1 and 2 contaminated with about 6-10% of 3)?
The value was “potent PTP inhibitor”.

And the “percentage activity of λPP relative to control” value (λPP; [1])?
Its value is 48 ± 2.0%.

And the inhibition at 1 µM (λPP; read-out: inhibition of λPP activity)?
Its inhibition at 1 µM is roughly 50%.

And the “percentage activity of CD45 relative to control” value (CD45; [2])?
The value was 15 ± 2.5%.

And the inhibition at 1 µM (CD45; read-out: inhibition of CD45)?
The inhibition at 1 µM was 83 to 85%.

What about the “percentage activity of TCPTP relative to control” value (TCPTP; [2]) of the same compound?
The value was 34 ± 1.0%.

What about the inhibition at 1 µM (TCPTP; read-out: inhibition of TC-PTP) of the same compound?
Its inhibition at 1 µM is roughly 65%.

And the “percentage activity of LAR-D1 relative to control” value (LAR-D1; [1])?
The value was 17 ± 2.0%.

What about the inhibition at 1 µM (LAR-D1; read-out: inhibition of LAR-D1) of the same compound?
Its inhibition at 1 µM is 83 to 85%.

What about the “percentage activity of εD1D2 relative to control” value (εD1D2; [2]) of the same compound?
The value was 17 ± 4.0%.

What about the inhibition at 1 µM (εD1D2; read-out: inhibition of εD1D2) of the same compound?
The inhibition at 1 µM was 83 to 85%.

What about the “percentage activity of αD1D2 relative to control” value (αD1D2; [1]) of the same compound?
The value was 17 ± 1.1%.

What about the “PTP inhibition of αD1D2 at neutral pH” value (αD1D2; neutral pH, results not shown) of the same compound?
Its value is “continues to behave as a PTP inhibitor”.

And the inhibition at 1 µM (αD1D2; read-out: inhibition of αD1D2)?
Its inhibition at 1 µM is 83 to 85%.

What about the “percentage activity of CIP relative to control” value (CIP; 1 μM compound, phosphatase 0.5 nM, pNPP, pH 7, average of three enzyme preparations ± S.D.) of the same compound?
Its value is 100 ± 1.0%.

What about the “effect on pNPP phosphatase activity of CIP” value (CIP; neutral pH) of the same compound?
The value was “neither compound had any detectable effect”.
